Reference: patent US20010053796A1, “Delta-aminolevulinic acid for prevention and treatment of infection microorganisms and parasite” (priority 2000, published 2001)

Legend:
Staphylococcus sp. = test: Prevention effect for artificial infection (abdominal injection of bacteria); assay type: in vivo, Bastardhalibut; conditions: for Mortality during Cultivation: dead of 20 fish
Protocol: The water temperature was maintained at 20° C. (±2° C. ) throughout the experiment. […]
Bastardhalibut and Sebastes schlegeli were infected by Staphylococcus sp. by abdominal injection with the same method of fish breeding δ-aminolevulinic acid treatment and artificial infection carried out in Experiment 1 and 2. Each experimental fish was moved to fish tanks for monitoring and monitored for mortality according to infection for 2 weeks.

Iridovirus = test: Treatment effect of virus-infected fish; assay type: in vivo, Pagrus major; conditions: for mortality during 10 days: 30 fish
Source text: In this present example, as carried out in Experiment 2 of Example 3, from the result that inhibition effect of virus infection in vitro by δ-aminolevulinic acid treatment was ascertained, fish whose diseases were in progress by virus infection, decrease in the mortality of infected fish body was ascertained when treated with δ-aminolevulinic acid. Pagrus major diagnosed by the PCR method among a school of Iridovirus-infected fish from a fish farm nearby Yeosu, 30 of each were separated and contained in […]. They were divided to group A, B, C and control group. Temporary changes in mortality was ascertained in 10 ppm δ-aminolevulinic acid-treated A group, 1.0 ppm δ-aminolevulinic acid-treated B group, 0.1 ppm δ-aminolevulinic acid-treated C group and untreated control group by using δ-aminolevulinic acid produced by the inventor. Each δ-aminolevulinic acid-treated group was treated 3 times in […] and 10 days results were reported. In the case of actual fish farms, the mortality by virus infection reaches up to 70%. However, as shown in the result of infected fish of Table 28, in the present experimental condition, cumulative mortality of infected fish without treatment has reached up to 50% until 10th day of experimental period. In δ-aminolevulinic acid-treated groups, low mortalities of 17%, 17% and 27% was shown in the condition of A, B and C groups during 10 days, respectively.

[1] = test system: RTG-2 (Rainbow Trout Gonad); conditions: 24 h
Protocol: δ-aminolevulinic acid feed were prepared to 1.0 M concentration (0. 167 g/mL HBSS) and diluted by 10-fold dilution method. 100 μl of each fish cell line suspension of 2.5×10^5 were placed into 96-well microplate and then, 100 μl of each of the resulting diluted solution, 4 well/dilution unit, were added respectively. Fish cell lines, which were used for this cell toxicity experiment of δ-aminolevulinic acid, were RTG-2 (Rainbow Trout Gonad), FHM (Fathead Minnow Epithelioma) and CHSE (Chinook Salmon Embryo) lotted out from Dr. M. Yoshimizu of the Department of Fisheries, Hokkaido University, Japan. For these experimental cells, 100 U/mL penicillin (Sigma), 100 μl/mL streptomycin (Sigma) and MEM media supplemented with 5% fetal bovine serum (FBS, Gibco) for cell culture were used. Cultured cells in 96-well microplate was incubated for 3 hrs at 15° C. and δ-aminolevulinic acid were added to wells at amounts of 100 μl of 0, 1.0, 10, 50 and 100 mM and incubated for 24 hrs at 18° C. As a control group, instead of δ-aminolevulinic acid, HBSS was added at the same amount. […] Absorbance was measured with an ELISA reader at 570 μl.

NCC(=O)CCC(=O)O [δ-aminolevulinic acid]
Viability (Staphylococcus sp.; orally, 0.1 ppm in feed): 55%
Mortality during Cultivation (Staphylococcus sp.; orally, 0.1 ppm in feed): 9
Viability (Staphylococcus sp.; orally, 1.0 ppm in feed): 65%
Mortality during Cultivation (Staphylococcus sp.; orally, 1.0 ppm in feed): 7
Viability (Staphylococcus sp.; orally, 10 ppm in feed): 95%
Mortality during Cultivation (Staphylococcus sp.; orally, 10 ppm in feed): 1
Viability (Staphylococcus sp.; orally, 100 ppm in feed): 90%
Mortality during Cultivation (Staphylococcus sp.; orally, 100 ppm in feed): 2
Viability (Staphylococcus sp.; to fish tanks, 0.01 ppm): 55%
Mortality during Cultivation (Staphylococcus sp.; to fish tanks, 0.01 ppm): 9
Viability (Staphylococcus sp.; to fish tanks, 0.1 ppm): 75%
Mortality during Cultivation (Staphylococcus sp.; to fish tanks, 0.1 ppm): 5
Viability (Staphylococcus sp.; to fish tanks, 1.0 ppm): 90%
Mortality during Cultivation (Staphylococcus sp.; to fish tanks, 1.0 ppm): 2
Viability (Staphylococcus sp.; to fish tanks, 10 ppm): 95%
Mortality during Cultivation (Staphylococcus sp.; to fish tanks, 10 ppm): 1
Viable Fish number According to Elapsed days After Treatment (Iridovirus; 0.1 ppm, day 0): 30
Viable Fish number According to Elapsed days After Treatment (Iridovirus; 0.1 ppm, day 1): 25
Viable Fish number According to Elapsed days After Treatment (Iridovirus; 0.1 ppm, day 2): 25
Viable Fish number According to Elapsed days After Treatment (Iridovirus; 0.1 ppm, day 3): 23
Viable Fish number According to Elapsed days After Treatment (Iridovirus; 0.1 ppm, day 4): 23
Viable Fish number According to Elapsed days After Treatment (Iridovirus; 0.1 ppm, day 5): 23
Viable Fish number According to Elapsed days After Treatment (Iridovirus; 0.1 ppm, day 6): 22
Viable Fish number According to Elapsed days After Treatment (Iridovirus; 0.1 ppm, day 7): 22
Viable Fish number According to Elapsed days After Treatment (Iridovirus; 0.1 ppm, day 8): 22
Viable Fish number According to Elapsed days After Treatment (Iridovirus; 0.1 ppm, day 9): 22
Viable Fish number According to Elapsed days After Treatment (Iridovirus; 0.1 ppm, day 10): 22
Viable Fish number According to Elapsed days After Treatment (Iridovirus; 1.0 ppm, day 0): 30
Viable Fish number According to Elapsed days After Treatment (Iridovirus; 1.0 ppm, day 1): 28
Viable Fish number According to Elapsed days After Treatment (Iridovirus; 1.0 ppm, day 2): 26
Viable Fish number According to Elapsed days After Treatment (Iridovirus; 1.0 ppm, day 3): 26
Viable Fish number According to Elapsed days After Treatment (Iridovirus; 1.0 ppm, day 4): 26
Viable Fish number According to Elapsed days After Treatment (Iridovirus; 1.0 ppm, day 5): 25
Viable Fish number According to Elapsed days After Treatment (Iridovirus; 1.0 ppm, day 6): 25
Viable Fish number According to Elapsed days After Treatment (Iridovirus; 1.0 ppm, day 7): 25
Viable Fish number According to Elapsed days After Treatment (Iridovirus; 1.0 ppm, day 8): 25
Viable Fish number According to Elapsed days After Treatment (Iridovirus; 1.0 ppm, day 9): 25
Viable Fish number According to Elapsed days After Treatment (Iridovirus; 1.0 ppm, day 10): 25
Viable Fish number According to Elapsed days After Treatment (Iridovirus; 10 ppm, day 0): 30
Viable Fish number According to Elapsed days After Treatment (Iridovirus; 10 ppm, day 1): 28
Viable Fish number According to Elapsed days After Treatment (Iridovirus; 10 ppm, day 2): 26
Viable Fish number According to Elapsed days After Treatment (Iridovirus; 10 ppm, day 3): 26
Viable Fish number According to Elapsed days After Treatment (Iridovirus; 10 ppm, day 4): 26
Viable Fish number According to Elapsed days After Treatment (Iridovirus; 10 ppm, day 5): 26
Viable Fish number According to Elapsed days After Treatment (Iridovirus; 10 ppm, day 6): 26
Viable Fish number According to Elapsed days After Treatment (Iridovirus; 10 ppm, day 7): 25
Viable Fish number According to Elapsed days After Treatment (Iridovirus; 10 ppm, day 8): 25
Viable Fish number According to Elapsed days After Treatment (Iridovirus; 10 ppm, day 9): 25
Viable Fish number According to Elapsed days After Treatment (Iridovirus; 10 ppm, day 10): 25
mortality during 10 days (Iridovirus; A group, 10 ppm): 17%
mortality during 10 days (Iridovirus; B group, 1.0 ppm): 17%
mortality during 10 days (Iridovirus; C group, 0.1 ppm): 27%
safe range of toxicity [1]: below 10 mM
